# Assay results from EP0423247B1, “COUMAMIDINE COMPOUNDS” (ABBOTT LABORATORIES, priority 1988, dated 1990).
# Key:
# [1] = system: Actinetobacter SP CMX 669; assay: MIC, agar dilution method (Brain Heart Infusion agar); assay type: cell-based; conditions: Actinetobacter SP CMX 669, grown aerobically, BHI agar, read-out: Minimum inhibitory concentrations
# Description: (§1) Minimum inhibitory concentration (MIC) was determined by the agar dilution method, described hereinbelow, using Brain Heart Infusion agar.
# (§2) Twelve petri dishes were prepared, each containing successive aqueous 2-fold dilutions of the test compounds mixed with 10 mL of sterilized Brain Heart Infusion (BHI) agar.
# (§3) The MIC was defined as the lowest concentration of test compound yielding no growth, a slight haze, or sparsely isolated colonies on the inoculum spot as compared to the growth control containing no test compound.
# [2] = system: Campylobacter jejuni ATTC 29428; assay: as above; assay type: cell-based; conditions: ATTC29428, Campylobacter jejuni ATTC 29428, grown aerobically, BHI agar, read-out: Minimum inhibitory concentrations
# Description: as §1, §2, §3
# [3] = system: Enterobacter aerogenes ATCC 13048; assay: as above; assay type: cell-based; conditions: Klebsiella aerogenes, ATCC13048, Enterobacter aerogenes ATCC 13048, grown aerobically, BHI agar, read-out: Minimum inhibitory concentrations
# Description: as §1, §2, §3
# [4] = system: Enterobacter cloacae CMX 650A; assay: as above; assay type: cell-based; conditions: CMX650A, grown aerobically, BHI agar, read-out: Minimum inhibitory concentrations
# Description: as §1, §2, §3
# [5] = system: Enterococcus faecium ATCC 8043; assay: as above; assay type: cell-based; conditions: ATCC8043, Enterococcus faecium ATCC 8043, grown aerobically, BHI agar, read-out: Minimum inhibitory concentrations
# Description: as §1, §2, §3
# Escherichia coli JUHL = assay: as above; assay type: cell-based; conditions: grown aerobically, BHI agar, read-out: Minimum inhibitory concentrations
# Description: as §1, §2, §3
# Escherichia coli SS = assay: as above; assay type: cell-based; conditions: grown aerobically, BHI agar, read-out: Minimum inhibitory concentrations
# Description: as §1, §2, §3
# [6] = system: Haemophilus influenzae 503B; assay: as above; assay type: cell-based; conditions: grown aerobically, BHI agar, read-out: Minimum inhibitory concentrations
# Description: as §1, §2, §3
# [7] = system: Klebsiella pneumoniae ATCC 8045; assay: as above; assay type: cell-based; conditions: ATCC8045, Klebsiella pneumoniae ATCC 8045, grown aerobically, BHI agar, read-out: Minimum inhibitory concentrations
# Description: as §1, §2, §3
# [8] = system: Neisseria gonorrhoeae 35FAMPI; assay: as above; assay type: cell-based; conditions: grown aerobically, BHI agar, read-out: Minimum inhibitory concentrations
# Description: as §1, §2, §3
# [9] = system: Neisseria gonorrhoeae CMX 591; assay: as above; assay type: cell-based; conditions: CMX591, Neisseria gonorrhoeae CMX 591, grown aerobically, BHI agar, read-out: Minimum inhibitory concentrations
# Description: as §1, §2, §3
# [10] = system: Proteus mirabilis CMX 704F; assay: as above; assay type: cell-based; conditions: CMX704F, grown aerobically, BHI agar, read-out: Minimum inhibitory concentrations
# Description: as §1, §2, §3
# [11] = system: Proteus vulgaris ABBOTT JJ; assay: as above; assay type: cell-based; conditions: grown aerobically, BHI agar, read-out: Minimum inhibitory concentrations
# Description: as §1, §2, §3
# [12] = system: Providencia stuartii CMX 640; assay: as above; assay type: cell-based; conditions: CMX640, Providencia stuartii CMX 640, grown aerobically, BHI agar, read-out: Minimum inhibitory concentrations
# Description: as §1, §2, §3
# [13] = system: Pseudomonas aeruginosa A5007; assay: as above; assay type: cell-based; conditions: Pseudomonas aeruginosa A5007, grown aerobically, BHI agar, read-out: Minimum inhibitory concentrations
# Description: as §1, §2, §3
# [14] = system: Pseudomonas aeruginosa ATCC 27853; assay: as above; assay type: cell-based; conditions: ATCC27853, Pseudomonas aeruginosa ATCC 27853, grown aerobically, BHI agar, read-out: Minimum inhibitory concentrations
# Description: as §1, §2, §3
# [15] = system: Pseudomonas aeruginosa BMH 10; assay: as above; assay type: cell-based; conditions: BMH10, Pseudomonas aeruginosa BMH 10, grown aerobically, BHI agar, read-out: Minimum inhibitory concentrations
# Description: as §1, §2, §3
# [16] = system: Pseudomonas aeruginosa CFS 387C; assay: as above; assay type: cell-based; conditions: CFS387C, grown aerobically, BHI agar, read-out: Minimum inhibitory concentrations
# Description: as §1, §2, §3
# [17] = system: Pseudomonas aeruginosa CFS 389; assay: as above; assay type: cell-based; conditions: CFS389, Pseudomonas aeruginosa CFS 389, grown aerobically, BHI agar, read-out: Minimum inhibitory concentrations
# Description: as §1, §2, §3
# [18] = system: Pseudomonas aeruginosa K799/WT; assay: as above; assay type: cell-based; conditions: grown aerobically, BHI agar, read-out: Minimum inhibitory concentrations
# Description: as §1, §2, §3
# Pseudomonas cepacia 296I = assay: as above; assay type: cell-based; conditions: Burkholderia cepacia, grown aerobically, BHI agar, read-out: Minimum inhibitory concentrations
# Description: as §1, §2, §3
# [19] = system: Serratia marcescens CMX 657E; assay: as above; assay type: cell-based; conditions: CMX657E, grown aerobically, BHI agar, read-out: Minimum inhibitory concentrations
# Description: as §1, §2, §3
# [20] = system: Serratia marcescens CMX 740C; assay: as above; assay type: cell-based; conditions: CMX740C, grown aerobically, BHI agar, read-out: Minimum inhibitory concentrations
# Description: as §1, §2, §3
# Staphylococcus aureus 45 = assay: as above; assay type: cell-based; conditions: Staphylococcus aureus 45, grown aerobically, BHI agar, read-out: Minimum inhibitory concentrations
# Description: as §1, §2, §3
# [21] = system: Staphylococcus aureus A5177; assay: as above; assay type: cell-based; conditions: Staphylococcus aureus A5177, grown aerobically, BHI agar, read-out: Minimum inhibitory concentrations
# Description: as §1, §2, §3
# [22] = system: Staphylococcus aureus ATCC 6538P; assay: as above; assay type: cell-based; conditions: ATCC6538P, grown aerobically, BHI agar, read-out: Minimum inhibitory concentrations
# Description: as §1, §2, §3
# [23] = system: Staphylococcus aureus CMX 686B; assay: as above; assay type: cell-based; conditions: CMX686B, grown aerobically, BHI agar, read-out: Minimum inhibitory concentrations
# Description: as §1, §2, §3
# [24] = system: Staphylococcus epidermidis 3519; assay: as above; assay type: cell-based; conditions: Staphylococcus epidermidis 3519, grown aerobically, BHI agar, read-out: Minimum inhibitory concentrations
# Description: as §1, §2, §3
# [25] = system: Streptococcus agalactiae CMX 508; assay: as above; assay type: cell-based; conditions: CMX508, Streptococcus agalactiae CMX 508, grown aerobically, BHI agar, read-out: Minimum inhibitory concentrations
# Description: as §1, §2, §3
# [26] = system: Streptococcus bovis A 5169; assay: as above; assay type: cell-based; conditions: Streptococcus equinus, A5169, Streptococcus bovis A 5169, grown aerobically, BHI agar, read-out: Minimum inhibitory concentrations
# Description: as §1, §2, §3
# [27] = system: Streptococcus pyogenes 930 CONST; assay: as above; assay type: cell-based; conditions: grown aerobically, BHI agar, read-out: Minimum inhibitory concentrations
# Description: as §1, §2, §3
# [28] = system: Streptococcus pyogenes EES 614; assay: as above; assay type: cell-based; conditions: EES614, Streptococcus pyogenes EES 614, grown aerobically, BHI agar, read-out: Minimum inhibitory concentrations
# Description: as §1, §2, §3
# [29] = Solubility (qualitative description); assay type: physicochemical
# Source text: High resolution, positive ion fast atom bombardment (FAB) mass spectrometry established identical molecular ions or m/z 835.3576 for the two isomers corresponding to a formula of C₃₃H₄₉N₁₃0₁₃ (calc. 835.3577). UV lambdamax=286 nm. The coumamidine gamma 1 isomer has an imidazolidone ring at the 2 and 3 position of the terminal sugar, and the coumamidine gamma 2 isomer has an oxazolidone ring at positions 3 and 4 of the terminal sugar.
SMILES,MIC [1] [µg/mL],MIC [3] [µg/mL],MIC [4] [µg/mL],MIC [5] [µg/mL],MIC (Escherichia coli JUHL) [µg/mL],MIC (Escherichia coli SS) [µg/mL],MIC [7] [µg/mL],MIC [10] [µg/mL],MIC [11] [µg/mL],MIC [12] [µg/mL],MIC [13] [µg/mL],MIC [14] [µg/mL],MIC [15] [µg/mL],MIC [16] [µg/mL],MIC [17] [µg/mL],MIC [18] [µg/mL],MIC (Pseudomonas cepacia 296I) [µg/mL],MIC [19] [µg/mL],MIC [20] [µg/mL],MIC (Staphylococcus aureus 45) [µg/mL],other results
"CC1OC(Oc2ccc(C=CC(=O)NCCC(=N)N)cc2)C(NC(=N)N)C(O)C1NC(=O)NC1OCC(OC2OCC(O)C3NC(=O)N(C(N)=O)C23)C(O)C1NC(N)=O (stereo not drawn) [gamma 1, coumamidine gamma 1]",0.25,1,4,16,0.25,0.5,0.25,1,2,0.5,8,8,0.25,8,8,8,32,1,2,0.5,MIC [2]: 0.06 µg/mL; MIC [6]: 0.03 µg/mL; MIC [8]: 0.5 µg/mL; MIC [9]: 0.5 µg/mL; MIC [21]: 1 µg/mL; MIC [22]: 0.25 µg/mL; MIC [23]: 0.25 µg/mL; MIC [24]: 0.5 µg/mL; MIC [25]: 8 µg/mL; MIC [26]: 16 µg/mL; MIC [27]: 2 µg/mL; MIC [28]: 4 µg/mL; solubility in dimethylsulfoxide [29]: readily soluble; solubility in methanol [29]: slightly soluble; solubility in water [29]: readily soluble
"CC1OC(Oc2ccc(C=CC(=O)NCCC(=N)N)cc2)C(NC(=N)N)C(O)C1NC(=O)NC1OCC(OC2OCC3OC(=O)NC3C2NC(N)=O)C(O)C1NC(N)=O (stereo not drawn) [gamma 2, coumamidine gamma 2]",4,2,4,32,0.5,1,0.5,1,4,2,16,8,0.5,16,8,16,> 32,2,2,1,MIC [21]: 1 µg/mL; MIC [22]: 0.5 µg/mL; MIC [23]: 0.5 µg/mL; MIC [24]: 1 µg/mL; MIC [25]: 16 µg/mL; MIC [26]: 32 µg/mL; MIC [27]: 1 µg/mL; MIC [28]: 1 µg/mL; solubility in dimethylsulfoxide [29]: readily soluble; solubility in methanol [29]: slightly soluble; solubility in water [29]: readily soluble
